Data as given in patent US7235649B2, “Isolated GRP94 ligand binding domain polypeptide and nucleic acid encoding same, and screening methods employing same” (Duke University, priority 2000, dated 2007).
pKd: −log10 of the molar value.

Assays:
[1] = molecular target: T1, GRP94 (Sus scrofa, UniProt Q29092); assay: [3H]-NECA competitive displacement assay; format: binding, porcine; design: GRP94 was purified from porcine pancreas rough microsomes; from tissue; host or cells: porcine pancreas rough microsomes; conditions: for effect of excess Mg2+ on binding to GRP94: 10 mM Mg(OAc)2 vs nominal endogenous magnesium
T1 sequence (Q29092 22-804): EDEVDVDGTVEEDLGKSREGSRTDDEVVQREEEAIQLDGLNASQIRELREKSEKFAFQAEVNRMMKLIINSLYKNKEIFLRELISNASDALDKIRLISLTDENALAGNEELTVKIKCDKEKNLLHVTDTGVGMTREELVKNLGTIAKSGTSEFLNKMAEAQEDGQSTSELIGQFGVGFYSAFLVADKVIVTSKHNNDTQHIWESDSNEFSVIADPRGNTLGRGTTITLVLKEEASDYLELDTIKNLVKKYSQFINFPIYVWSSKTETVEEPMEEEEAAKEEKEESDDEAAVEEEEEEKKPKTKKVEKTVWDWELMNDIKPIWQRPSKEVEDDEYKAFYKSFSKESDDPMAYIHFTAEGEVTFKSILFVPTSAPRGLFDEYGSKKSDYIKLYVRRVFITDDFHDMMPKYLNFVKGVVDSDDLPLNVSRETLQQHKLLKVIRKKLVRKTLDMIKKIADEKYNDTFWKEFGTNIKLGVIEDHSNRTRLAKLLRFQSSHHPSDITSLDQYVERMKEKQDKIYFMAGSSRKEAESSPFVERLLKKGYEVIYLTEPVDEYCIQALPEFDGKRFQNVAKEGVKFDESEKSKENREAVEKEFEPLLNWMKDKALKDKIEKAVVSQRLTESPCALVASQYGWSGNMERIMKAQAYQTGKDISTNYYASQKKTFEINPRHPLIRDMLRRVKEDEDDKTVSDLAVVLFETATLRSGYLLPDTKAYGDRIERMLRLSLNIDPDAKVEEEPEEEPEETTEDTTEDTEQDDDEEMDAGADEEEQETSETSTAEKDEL

[2] = molecular target: T1, GRP94; assay: [3H]-NECA binding assay (vacuum filtration); design: GRP94 was purified from porcine pancreas rough microsomes; from tissue; host or cells: porcine pancreas rough microsomes; species or system porcine
[3] = molecular target: T1, GRP94; assay: GRP94 autophosphorylation assay; format: biochemical, porcine; design: GRP94 was purified from porcine pancreas rough microsomes; from tissue; host or cells: porcine pancreas rough microsomes; conditions: 180 μM NECA or 180 μM radicicol in 3.6% DMSO, 5 μg/ml heparin, 5 mM GTP; 1 hour 37° C.
Description: (§1) Phosphorylation Assays. […] For the casein kinase assay, 1 unit of casein kinase 11 was incubated as described above, with the addition of 4 μM casein. […] The 25 μl reaction mixtures were incubated at 37° C. for 1 hour and quenched by addition of 10% trichloroacetic acid. Samples were analyzed by 10% SDS-PAGE gels and the phosphorylated species were quantitated using a Fuji MACBAS1000™ phosphorimaging system (Fuji Medical Systems of Stamford, Conn.).

[4] = molecular target: T1, GRP94; assay: Tryptophan fluorescence (ligand-induced conformational change); conditions: 50 μM NECA, 50 μM geldanamycin, 2.5 mM ATP or 2.5 mM ADP, 1 hour at 37° C.
Description: Tryptophan Fluorescence. Tryptophan fluorescence measurements were conducted in a FLUOROMAX™ spectrofluorometer (Spex Industries, Inc. of Edison, N.J.) with the slit widths set to 1 nm for both excitation and emission. […] All spectra were corrected by subtraction of buffer or buffer plus ligand samples. […] Samples were then cooled to room temperature, transferred to a quartz cuvette, and the spectra collected.

[5] = molecular target: T1, GRP94; assay: Isothermal titration calorimetry; format: binding, porcine; design: GRP94 was purified from porcine pancreas rough microsomes; from tissue; host or cells: porcine pancreas rough microsomes; conditions: 5 μM GRP94, 152 μM NECA stock, 25° C.
Description: Isothermal calorimetry experiments were performed at 25° C. using a MSC calorimeter (MicroCal Inc. of Northampton, Mass.). […] Necessary corrections were made by subtracting the heats of dilution resulting from buffer addition to protein solution and ligand solution into buffer.

[6] = tested on: BiP; assay: [3H]-NECA binding assay (vacuum filtration); design: species or system porcine; conditions: 20 nM [3H]-NECA, 60 min on ice
Description: (§2) BiP was purified by the following procedure. A lumenal protein fraction obtained from porcine pancreas rough microsomes was cycled overnight through a 1 ml ADP-agarose and a 1 ml ATP-agarose (Sigma Chemical Co. of St. Louis, Mo.) column coupled in series. […] The BiP containing fractions were identified by SDS-PAGE, and dialyzed against 2×4 L of buffer A (110 mM KOAc, 20 mM NaCl, 25 mM K-Hepes, pH 7.2, 2 mM Mg(OAc)2 0.1 mM CaCl2). The protein sample was then applied to a SUPERDEX® 26/60 column (Amersham Pharmacia Biotech of Piscataway, N.J.) equilibrated in buffer A, and the BiP containing fractions, again identified by SDS-PAGE, were pooled and concentrated by centrifugal ultrafiltration (CENTRICON-30®; Amicon of Beverly, Mass.).
[^3H]-NECA Binding Assay.
In similar experiments, [^3H]-NECA binding to Hsp90 was evaluated in the presence of molybdate and NP-40, which are known to stabilize the Hsp90 conformation associated with ATP binding, as described by Sullivan et al. (1997).

[7] = molecular target: casein kinase II (Homo sapiens, UniProt P68400); assay: Casein kinase II assay with casein; format: biochemical; conditions: 180 μM NECA or 180 μM radicicol in 3.6% DMSO, 5 μg/ml heparin, 5 mM GTP; 4 μM casein
casein kinase II, sequence (P68400 whole entry): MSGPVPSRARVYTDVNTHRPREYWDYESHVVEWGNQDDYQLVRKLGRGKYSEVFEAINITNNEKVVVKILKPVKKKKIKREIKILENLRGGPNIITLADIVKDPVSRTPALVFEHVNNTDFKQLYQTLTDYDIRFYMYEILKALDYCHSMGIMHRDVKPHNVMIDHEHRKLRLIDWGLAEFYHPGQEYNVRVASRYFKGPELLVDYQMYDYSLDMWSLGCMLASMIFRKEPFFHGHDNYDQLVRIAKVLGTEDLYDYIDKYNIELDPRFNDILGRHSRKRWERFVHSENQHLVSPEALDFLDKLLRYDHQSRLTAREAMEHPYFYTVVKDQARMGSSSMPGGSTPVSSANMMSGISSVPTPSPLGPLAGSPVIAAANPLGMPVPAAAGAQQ
casein kinase II, sequence (P67870 whole entry partner): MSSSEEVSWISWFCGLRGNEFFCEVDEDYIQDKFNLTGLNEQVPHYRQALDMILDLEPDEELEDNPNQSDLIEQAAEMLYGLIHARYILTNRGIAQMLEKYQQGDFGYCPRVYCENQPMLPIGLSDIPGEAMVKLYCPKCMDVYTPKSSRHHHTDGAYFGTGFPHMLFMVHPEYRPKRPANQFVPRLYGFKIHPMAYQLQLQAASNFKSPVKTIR
Description: as §1

[8] = tested on: BiP; assay: [32P]ATP binding assay (nitrocellulose filtration); design: species or system porcine; conditions: 50 μM [32P]ATP, 1 hour on ice
Description: as §2
(§3) ATP Binding Assay. Six μg of GRP94, BiP, and Hsp90 was incubated with 50 μM yZ[^32P] ATP (1000 μCi/μmol) (Amersham Pharmacia Biotech of Piscataway, N.J.) in buffer B on ice for 1 hour. Nitrocellulose filters (BA85) (Schleicher & Schuell of Keene, N.H.) were individually wet in buffer B before use, and bound versus free [^32P]-ATP was separated by vacuum filtration. Filters were washed with 3×2 mL of ice cold buffer B, placed in 5 mL of scintillation fluid, vortexed, and counted.

[9] = molecular target: N-terminal nucleotide binding pocket of Hsp90 (Saccharomyces cerevisiae, UniProt P02829); conditions: Prodromou et al. (1997); read-out: Kd of ATP for Hsp90; cited from earlier work
N-terminal nucleotide binding pocket of Hsp90, sequence (P02829 whole entry): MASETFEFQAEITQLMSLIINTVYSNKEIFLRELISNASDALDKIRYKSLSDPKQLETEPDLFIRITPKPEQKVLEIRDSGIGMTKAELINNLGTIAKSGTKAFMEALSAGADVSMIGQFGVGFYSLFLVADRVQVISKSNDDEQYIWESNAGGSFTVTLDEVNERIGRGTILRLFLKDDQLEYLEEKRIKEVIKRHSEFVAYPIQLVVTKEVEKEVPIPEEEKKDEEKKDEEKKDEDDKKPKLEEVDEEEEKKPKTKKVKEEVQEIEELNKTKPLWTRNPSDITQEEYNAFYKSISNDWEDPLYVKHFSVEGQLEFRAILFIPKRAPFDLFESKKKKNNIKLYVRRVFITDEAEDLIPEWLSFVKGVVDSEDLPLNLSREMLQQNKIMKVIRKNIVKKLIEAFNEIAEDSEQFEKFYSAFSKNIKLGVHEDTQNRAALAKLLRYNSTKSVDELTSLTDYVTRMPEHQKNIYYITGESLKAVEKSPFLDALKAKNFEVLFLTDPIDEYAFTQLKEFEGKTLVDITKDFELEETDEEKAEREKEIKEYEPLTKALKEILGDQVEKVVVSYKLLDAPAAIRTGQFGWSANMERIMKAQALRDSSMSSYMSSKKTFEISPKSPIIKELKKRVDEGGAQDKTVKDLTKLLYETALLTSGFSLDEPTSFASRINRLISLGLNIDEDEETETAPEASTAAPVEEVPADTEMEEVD

[10] = molecular target: T1, GRP94; assay: [32P]ATP binding assay (nitrocellulose filtration); design: GRP94 was purified from porcine pancreas rough microsomes; from tissue; host or cells: porcine pancreas rough microsomes; species or system porcine; conditions: 50 μM [32P]ATP, 1 hour on ice
Description: as §3

[11] = tested on: Hsp90; assay: [32P]ATP binding assay (nitrocellulose filtration); design: species or system rat; conditions: 50 μM [32P]ATP, 1 hour on ice
Description: Hsp90 was purified from rat liver cytosol as follows. Cytosol was adjusted to 30% ammonium sulfate and stirred for 60 min on ice. The solution was centrifuged at 20,000×g in a Sorvall SS34 rotor for 15 minutes and the supernatant collected and filtered through a 0.22 μm filter. The filtered supernatant was supplemented with protease inhibitors (1 μg/ml pepstatin, 1 μg/ml leupeptin, 20 μg/ml SBTI, and 0.5 mM PMSF) and loaded onto a phenyl-SUPEROSE™ HR10/10 column (Amersham Pharmacia Biotech of Piscataway, N.J.). After washing, the bound proteins were eluted with a gradient of 30–0% saturated ammonium sulfate in 10 mM Tris/HCl, pH 7.5, 1 mM EGTA, 0.5 mM DTT and the Hsp90 containing fractions were identified by SDS-PAGE. The Hsp90 containing fractions were then pooled and dialyzed 2×3 hr against 2 L of low salt buffer (10 mM NaCl, 25 mM Tris, pH 7.8). The dialyzed sample was then filtered through a 0.22 μm filter, and injected onto a MONO-Q™ HR 10/10 column (Amersham Pharmacia Biotech of Piscataway, N.J.) equilibrated in low salt buffer. The column was eluted with a gradient of 10 mM–750 mM NaCl in 25 mM Tris, pH 7.8. The Hsp90-containing fractions were identified by SDS-PAGE and pooled.
ATP Binding Assay. Six μg of GRP94, BiP, and Hsp90 was incubated with 50 μM yZ[^32P] […] Filters were washed with 3×2 mL of ice cold buffer B, placed in 5 mL of scintillation fluid, vortexed, and counted.

In the case of CCNC(=O)[C@H]1O[C@@H](n2cnc3c(N)ncnc32)[C@H](O)[C@@H]1O [NECA, N-ethylcarboxamidoadenosine], the “effect of excess Mg2+ on binding to GRP94” value [1] was “without effect”, the “[3H]-NECA binding activity of GRP94” value ([2]; 20 nM [3H]-NECA, 60 min on ice) was “readily detectable” and the “stoichiometry of NECA bound to GRP94 at saturation (summary)” value ([2]; ligand binding studies and isothermal titration calorimetry) was 1 mol NECA:mol GRP94 dimer. For the same compound, the “Hill plot slope of [3H]-NECA binding” value ([2]; saturation binding) was 1.2, the “binding stoichiometry of [3H]-NECA” value ([2]; saturation binding) was 0.5 mol [^3H]-NECA/mol GRP94 monomer and the “maximal binding stoichiometry of NECA” value ([2]; saturation curve, FIG. 9B) was 1 molecule of NECA per molecule of GRP94 dimer. The “effect on GRP94 autophosphorylation activity” value [3] was “does not significantly inhibit GRP94 autophosphorylation activity”, the “change of GRP94 tryptophan fluorescence” value [4] was “increased the tryptophan fluorescence” and the “binding stoichiometry of NECA by isothermal titration calorimetry” value [5] was 1.1 mol NECA/mol GRP94 dimer. The “[3H]-NECA binding to BiP” value [6] was “not observed” and the “effect on casein kinase II activity” value [7] was “neither NECA nor radicicol, both of which bind to the N-terminal nucleotide binding domain of GRP94, significantly inhibit GRP94 derived or casein kinase II activity”.

With Nc1ncnc2c1ncn2[C@@H]1O[C@H](COP(=O)(O)OP(=O)(O)OP(=O)(O)O)[C@@H](O)[C@H]1O [ATP] the “molar excess of competitor required for 50% inhibition of [3H]-NECA binding” value ([1]; 20 nM [3H]-NECA) was ~1000 -fold molar excess, the “competition with [3H]-NECA for binding to GRP94 (adenosine ligands)” value ([1]; 20 nM [3H]-NECA, nominal (80 μM) Mg2+) was “effectively competed” and the “effect of excess Mg2+ on binding to GRP94” value [1] was “markedly stimulated”. For the same compound, the “extent of competition of NECA binding to GRP94” value ([1]; FIGS. 10A–10C) was “wholly competed”, the “nucleoside base specificity: binding by [3H]-NECA competitive displacement” value ([1]; competitors all at 50 μM, 20 nM [3H]-NECA) was “could bind” and the “relative affinities for GRP94 in presence of Mg2+” value ([1]; excess Mg2+) was “nearly identical relative affinities”. For the same compound, the “efficacy of competing NECA binding, ATP relative to ADP” value ([1]; nominal Mg2+) was “eight-fold higher efficacy than ADP”, the “ATP binding to BiP” value [8] was “displayed the expected ATP binding activity” and the “change of GRP94 tryptophan fluorescence” value [4] was “the tryptophan fluorescence was decreased”. The pKd [9] was 3.88, the “ATP binding to GRP94” value [10] was “no ATP binding was observed” and the “ATP binding to Hsp90” value [11] was “no ATP binding was observed”.
